Calls of active or inactive are those of the source.
Tests used:
[1] = biological target: T1, Short transient receptor potential channel 4 (Mus musculus, UniProt Q9QUQ5); test: TRPC4 positive allosteric modulators, dose response, cell-based, HEK293 TRPC4/mu-opioid, Fluo-4 calcium, EC20 DAMGO (AID 434941); format: functional
T1 sequence (Q9QUQ5 whole entry): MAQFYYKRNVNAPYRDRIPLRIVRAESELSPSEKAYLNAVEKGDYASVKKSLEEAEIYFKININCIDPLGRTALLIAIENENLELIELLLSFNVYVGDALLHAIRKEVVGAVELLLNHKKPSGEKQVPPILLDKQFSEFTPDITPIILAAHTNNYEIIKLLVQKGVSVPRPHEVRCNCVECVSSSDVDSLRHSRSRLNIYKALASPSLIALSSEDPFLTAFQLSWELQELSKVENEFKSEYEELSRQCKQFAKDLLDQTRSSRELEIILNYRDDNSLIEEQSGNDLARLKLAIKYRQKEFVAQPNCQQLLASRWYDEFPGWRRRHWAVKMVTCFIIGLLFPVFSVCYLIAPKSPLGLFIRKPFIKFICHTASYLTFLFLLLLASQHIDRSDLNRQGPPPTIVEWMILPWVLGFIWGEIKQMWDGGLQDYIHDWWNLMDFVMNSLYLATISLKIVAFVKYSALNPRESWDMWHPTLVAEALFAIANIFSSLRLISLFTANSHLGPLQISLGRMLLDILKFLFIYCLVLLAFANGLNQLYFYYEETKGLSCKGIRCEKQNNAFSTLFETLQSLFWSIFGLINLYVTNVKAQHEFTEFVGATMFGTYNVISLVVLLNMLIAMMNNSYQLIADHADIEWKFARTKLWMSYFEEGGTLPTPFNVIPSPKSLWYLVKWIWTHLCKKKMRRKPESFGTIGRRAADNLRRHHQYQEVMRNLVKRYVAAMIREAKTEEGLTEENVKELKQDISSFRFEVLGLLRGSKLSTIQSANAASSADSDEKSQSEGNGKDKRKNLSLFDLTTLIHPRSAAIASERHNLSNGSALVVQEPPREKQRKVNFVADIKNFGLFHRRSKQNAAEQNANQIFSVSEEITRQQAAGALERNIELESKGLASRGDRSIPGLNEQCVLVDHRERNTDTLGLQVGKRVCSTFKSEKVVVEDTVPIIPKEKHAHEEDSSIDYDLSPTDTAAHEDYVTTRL

[2] = biological target: G-protein coupled receptor 55 (Homo sapiens, UniProt Q9Y2T6); test: GPR55 agonists via beta-arrestin recruitment, primary screen, imaging, U2OS cells, beta-arrestin-GFP redistribution (AID 1961); format: functional
[3] = biological target: T2, Replicative DNA helicase DnaB (Mycobacterium tuberculosis, UniProt P9WMR3); test: DnaB intein splicing inhibitors, dose response, biochemical, cell-free fluorescence (AID 449749); format: functional
T2 sequence (P9WMR3 whole entry): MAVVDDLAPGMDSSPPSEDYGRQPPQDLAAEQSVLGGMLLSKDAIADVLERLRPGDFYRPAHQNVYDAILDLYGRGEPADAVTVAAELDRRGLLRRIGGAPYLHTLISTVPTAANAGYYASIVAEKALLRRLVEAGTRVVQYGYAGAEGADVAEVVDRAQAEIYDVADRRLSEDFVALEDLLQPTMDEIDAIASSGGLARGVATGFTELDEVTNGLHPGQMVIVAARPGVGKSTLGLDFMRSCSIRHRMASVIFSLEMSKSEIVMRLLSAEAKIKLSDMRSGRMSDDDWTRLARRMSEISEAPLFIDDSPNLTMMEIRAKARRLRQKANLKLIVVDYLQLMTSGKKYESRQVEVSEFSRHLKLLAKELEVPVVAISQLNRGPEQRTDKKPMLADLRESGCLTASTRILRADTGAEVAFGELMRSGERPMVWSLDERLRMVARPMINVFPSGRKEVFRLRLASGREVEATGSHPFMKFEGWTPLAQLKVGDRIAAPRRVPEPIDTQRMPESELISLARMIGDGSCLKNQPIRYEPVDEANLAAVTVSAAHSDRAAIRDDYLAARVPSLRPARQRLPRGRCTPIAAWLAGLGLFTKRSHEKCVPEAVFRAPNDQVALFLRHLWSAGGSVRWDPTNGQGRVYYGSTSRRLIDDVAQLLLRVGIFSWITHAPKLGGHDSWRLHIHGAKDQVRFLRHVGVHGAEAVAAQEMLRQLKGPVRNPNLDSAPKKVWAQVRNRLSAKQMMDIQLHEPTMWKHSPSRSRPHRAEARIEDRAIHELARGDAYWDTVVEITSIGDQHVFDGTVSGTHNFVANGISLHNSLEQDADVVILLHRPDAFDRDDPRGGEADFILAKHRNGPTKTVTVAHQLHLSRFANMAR

Protein RecA = biological target: T3, Protein RecA (Mycobacterium tuberculosis, UniProt P9WHJ3); test: Fluorescence Cell-Free Homogeneous Dose Retest to Identify Inhibitors of RecA-Intein Splicing Activity. [Related pubchem assays (depositor defined):AID2097, AID2223, AID489010, AID492950]; format: functional
T3 sequence (P9WHJ3 whole entry): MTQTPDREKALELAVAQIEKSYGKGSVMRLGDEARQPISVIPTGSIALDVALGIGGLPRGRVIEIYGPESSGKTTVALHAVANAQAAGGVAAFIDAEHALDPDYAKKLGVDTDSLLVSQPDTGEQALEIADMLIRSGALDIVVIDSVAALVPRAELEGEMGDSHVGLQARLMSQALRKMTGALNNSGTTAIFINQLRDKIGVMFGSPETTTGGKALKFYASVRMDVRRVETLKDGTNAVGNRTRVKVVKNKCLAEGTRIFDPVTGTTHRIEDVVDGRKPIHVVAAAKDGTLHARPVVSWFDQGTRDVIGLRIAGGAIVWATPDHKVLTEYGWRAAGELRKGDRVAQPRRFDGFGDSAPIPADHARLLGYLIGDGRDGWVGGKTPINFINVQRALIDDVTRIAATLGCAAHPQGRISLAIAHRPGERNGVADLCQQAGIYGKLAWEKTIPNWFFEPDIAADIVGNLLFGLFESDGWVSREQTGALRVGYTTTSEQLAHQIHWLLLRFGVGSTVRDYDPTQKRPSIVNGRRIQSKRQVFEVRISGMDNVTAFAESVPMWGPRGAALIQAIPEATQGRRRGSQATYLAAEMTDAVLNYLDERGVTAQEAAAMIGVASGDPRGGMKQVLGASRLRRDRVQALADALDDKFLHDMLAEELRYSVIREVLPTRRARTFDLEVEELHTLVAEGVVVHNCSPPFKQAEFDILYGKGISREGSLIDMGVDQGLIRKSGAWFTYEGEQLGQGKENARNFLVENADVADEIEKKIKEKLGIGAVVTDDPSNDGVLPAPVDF

Phosphomannomutase 2 = biological target: T4, Phosphomannomutase 2 (Homo sapiens, UniProt O15305); test: Counter screen SAR assay for PMM2 inhibitors via a fluorescence intensity assay. [Related pubchem assays (depositor defined):AID1545, AID1574]
T4 sequence (O15305 whole entry): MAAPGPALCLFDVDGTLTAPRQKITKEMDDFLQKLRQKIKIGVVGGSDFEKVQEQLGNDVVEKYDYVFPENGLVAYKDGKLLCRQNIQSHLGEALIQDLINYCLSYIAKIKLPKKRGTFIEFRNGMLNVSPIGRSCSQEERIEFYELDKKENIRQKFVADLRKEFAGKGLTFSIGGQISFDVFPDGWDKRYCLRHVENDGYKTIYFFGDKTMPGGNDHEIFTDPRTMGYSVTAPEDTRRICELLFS

[4] = biological target: Phosphoethanolamine/phosphocholine phosphatase (Homo sapiens, UniProt Q8TCT1); test: SAR assay for compounds that inhibit PHOSPHO1. [Related pubchem assays (depositor defined):AID1545, AID1565, AID1574]
Salmon testes DNA = test: DNA intercalators displacing acridine orange, dose response, artefact control for KSHV LANA DNA-binding inhibitor project, biochemical, fluorescence polarization, cherry-picked samples, set 2 (AID 504727); set-up: species or system Salmonidae
ORF 73 = biological target: T5, ORF 73 (Human herpesvirus 8, UniProt O40947); test: inhibitors of C-LANA binding to LBS DNA, dose response, biochemical, fluorescence polarization, cherry-picked samples (AID 504725); set-up: species or system Human gammaherpesvirus 8;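 note: fluorescence polarization of a labeled DNA duplex reporting LANA DNA binding; potency is for inhibitors that block LANA binding to the DNA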
T5 sequence (O40947 whole entry): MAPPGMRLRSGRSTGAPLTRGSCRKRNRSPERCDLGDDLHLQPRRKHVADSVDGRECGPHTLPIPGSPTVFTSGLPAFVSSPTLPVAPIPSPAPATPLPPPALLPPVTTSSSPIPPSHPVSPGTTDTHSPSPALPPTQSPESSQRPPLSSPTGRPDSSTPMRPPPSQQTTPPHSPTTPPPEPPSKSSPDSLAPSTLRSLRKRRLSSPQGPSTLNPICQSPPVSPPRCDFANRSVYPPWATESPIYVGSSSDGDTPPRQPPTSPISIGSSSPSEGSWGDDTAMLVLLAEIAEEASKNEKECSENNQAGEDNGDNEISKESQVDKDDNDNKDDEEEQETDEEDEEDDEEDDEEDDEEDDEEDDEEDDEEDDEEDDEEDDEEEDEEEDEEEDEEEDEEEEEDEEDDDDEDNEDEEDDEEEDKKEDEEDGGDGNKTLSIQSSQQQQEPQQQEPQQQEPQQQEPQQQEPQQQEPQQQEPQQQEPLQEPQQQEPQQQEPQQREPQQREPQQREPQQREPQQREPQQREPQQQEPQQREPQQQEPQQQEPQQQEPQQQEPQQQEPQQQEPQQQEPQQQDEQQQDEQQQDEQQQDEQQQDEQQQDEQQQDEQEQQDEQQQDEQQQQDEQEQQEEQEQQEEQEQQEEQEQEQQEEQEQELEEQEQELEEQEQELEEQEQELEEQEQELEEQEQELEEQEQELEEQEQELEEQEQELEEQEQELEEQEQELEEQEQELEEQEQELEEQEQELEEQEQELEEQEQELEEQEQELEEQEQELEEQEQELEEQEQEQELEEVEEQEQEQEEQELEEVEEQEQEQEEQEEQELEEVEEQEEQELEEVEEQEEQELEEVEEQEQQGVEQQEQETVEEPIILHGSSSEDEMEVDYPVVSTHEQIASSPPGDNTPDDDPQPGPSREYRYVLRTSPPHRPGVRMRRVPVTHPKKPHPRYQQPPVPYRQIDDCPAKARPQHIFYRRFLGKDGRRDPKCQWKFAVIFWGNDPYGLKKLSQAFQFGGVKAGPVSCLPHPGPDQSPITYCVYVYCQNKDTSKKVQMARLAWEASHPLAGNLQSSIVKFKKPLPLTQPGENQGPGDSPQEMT

[5] = biological target: T6, Endoribonuclease toxin MazF (Escherichia coli K-12, UniProt P0AE70); test: MazF toxin RNase activators, dose response, biochemical, fluorescence, single-stranded RNA substrate, uHTS hits (AID 588481); format: functional
T6 sequence (P0AE70 whole entry): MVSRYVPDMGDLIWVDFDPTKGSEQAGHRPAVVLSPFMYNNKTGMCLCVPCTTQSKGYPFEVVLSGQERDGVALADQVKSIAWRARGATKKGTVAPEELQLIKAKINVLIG

[6] = biological target: UDP-galactopyranose mutase (Mycobacterium tuberculosis, UniProt P9WIQ1); test: Inhibitors of Mycobacterium tuberculosis UDP-galactopyranose mutase (UGM) enzyme Measured in Biochemical System Using Plate Reader - 2105-02_Inhibitor_Dose_CherryPick_Activity. [Related pubchem assays (depositor defined):AID504439]
Keap1/Nrf2 = Keap1/Nrf2 (Homo sapiens, UniProt Q14145); test: Keap1-Nrf2 protein-protein interaction inhibitors, dose response, biochemical, fluorescence polarization, cherry-picked samples (AID 588683)
[7] = biological target: T6, Endoribonuclease toxin MazF; test: fluorescent RNA oligo signal without MazF, dose response, counter-screen for MazEF activator project, biochemical, fluorescence, single-stranded RNase substrate (AID 588502); format: functional

Sequence of UDP-galactopyranose mutase (P9WIQ1 whole entry): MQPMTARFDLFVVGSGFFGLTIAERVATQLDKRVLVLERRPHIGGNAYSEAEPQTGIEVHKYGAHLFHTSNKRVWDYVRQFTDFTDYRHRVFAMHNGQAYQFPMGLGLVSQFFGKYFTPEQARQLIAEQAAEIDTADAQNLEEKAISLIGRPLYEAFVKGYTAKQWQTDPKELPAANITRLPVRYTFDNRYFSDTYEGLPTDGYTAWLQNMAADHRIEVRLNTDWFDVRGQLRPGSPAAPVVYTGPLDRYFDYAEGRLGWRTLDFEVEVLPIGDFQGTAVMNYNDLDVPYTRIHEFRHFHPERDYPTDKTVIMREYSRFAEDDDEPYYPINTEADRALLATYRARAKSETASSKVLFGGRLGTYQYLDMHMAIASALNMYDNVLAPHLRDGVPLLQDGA
Sequence of G-protein coupled receptor 55 (Q9Y2T6 whole entry): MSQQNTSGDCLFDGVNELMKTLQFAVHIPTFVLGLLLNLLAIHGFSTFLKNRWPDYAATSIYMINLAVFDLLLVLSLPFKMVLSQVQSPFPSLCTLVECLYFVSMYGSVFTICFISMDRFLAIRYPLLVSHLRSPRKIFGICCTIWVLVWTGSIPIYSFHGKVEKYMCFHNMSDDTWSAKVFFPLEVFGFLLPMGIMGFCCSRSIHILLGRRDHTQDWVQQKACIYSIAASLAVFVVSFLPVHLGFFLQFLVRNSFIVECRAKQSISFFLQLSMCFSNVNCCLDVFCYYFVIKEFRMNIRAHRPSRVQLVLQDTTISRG
Sequence of Phosphoethanolamine/phosphocholine phosphatase (Q8TCT1 whole entry): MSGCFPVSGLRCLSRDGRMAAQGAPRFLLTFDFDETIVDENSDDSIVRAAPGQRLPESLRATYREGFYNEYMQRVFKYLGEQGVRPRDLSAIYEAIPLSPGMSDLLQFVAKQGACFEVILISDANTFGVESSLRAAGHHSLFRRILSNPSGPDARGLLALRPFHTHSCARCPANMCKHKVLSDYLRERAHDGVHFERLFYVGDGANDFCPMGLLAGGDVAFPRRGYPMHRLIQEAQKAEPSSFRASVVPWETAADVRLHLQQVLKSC
Sequence of Keap1/Nrf2 (Q16236 whole entry): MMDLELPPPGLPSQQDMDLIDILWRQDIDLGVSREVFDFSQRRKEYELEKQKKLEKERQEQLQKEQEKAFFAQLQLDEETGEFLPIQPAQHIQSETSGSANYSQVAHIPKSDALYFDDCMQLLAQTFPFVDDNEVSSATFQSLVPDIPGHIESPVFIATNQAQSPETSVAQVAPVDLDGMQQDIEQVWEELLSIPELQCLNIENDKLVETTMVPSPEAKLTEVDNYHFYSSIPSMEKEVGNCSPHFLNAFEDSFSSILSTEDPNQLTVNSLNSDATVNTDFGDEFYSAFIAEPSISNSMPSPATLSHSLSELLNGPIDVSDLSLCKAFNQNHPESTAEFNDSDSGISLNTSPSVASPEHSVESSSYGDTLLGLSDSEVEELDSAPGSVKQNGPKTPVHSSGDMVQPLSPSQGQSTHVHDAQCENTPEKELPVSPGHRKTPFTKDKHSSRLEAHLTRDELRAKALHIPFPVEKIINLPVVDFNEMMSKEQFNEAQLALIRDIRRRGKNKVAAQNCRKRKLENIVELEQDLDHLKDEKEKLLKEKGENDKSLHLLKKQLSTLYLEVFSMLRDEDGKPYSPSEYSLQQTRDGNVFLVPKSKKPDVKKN
Sequence of Keap1/Nrf2 (Q14145 whole entry): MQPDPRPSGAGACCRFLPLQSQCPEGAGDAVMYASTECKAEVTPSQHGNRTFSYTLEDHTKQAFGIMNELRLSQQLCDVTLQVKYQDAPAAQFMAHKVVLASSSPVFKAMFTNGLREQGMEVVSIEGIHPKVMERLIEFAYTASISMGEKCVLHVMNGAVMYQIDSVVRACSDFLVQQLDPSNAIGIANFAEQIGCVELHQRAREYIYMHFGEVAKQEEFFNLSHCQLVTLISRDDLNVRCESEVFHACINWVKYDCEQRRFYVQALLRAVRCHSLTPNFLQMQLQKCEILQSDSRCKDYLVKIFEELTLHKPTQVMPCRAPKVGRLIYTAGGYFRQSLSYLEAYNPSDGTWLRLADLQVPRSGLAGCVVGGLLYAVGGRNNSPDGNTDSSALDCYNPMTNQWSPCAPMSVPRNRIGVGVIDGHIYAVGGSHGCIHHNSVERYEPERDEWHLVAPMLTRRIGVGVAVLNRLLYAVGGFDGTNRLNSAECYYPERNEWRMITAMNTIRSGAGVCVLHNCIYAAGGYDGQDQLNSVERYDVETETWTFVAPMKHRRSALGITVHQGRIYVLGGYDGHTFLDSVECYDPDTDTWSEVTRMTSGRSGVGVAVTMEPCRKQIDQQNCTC

Structure (SMILES): O=C(c1cccc([N+](=O)[O-])c1)N1CCCC(C(=O)N2CCCCCC2)C1 (configuration not stated)
- EC50 [1]: 330 nM (active)

Structure (SMILES): O=C(c1ccncc1)N(c1ccc2oc3c(c2c1)CCCC3)S(=O)(=O)c1ccc(F)cc1
- EC50 [2]: > 32 µM (inactive)
- AC50 [3]: 2.09 µM (active)
- EC50 (Protein RecA): 6.22 µM (active)

Structure (SMILES): CN(C)c1cccc(-n2sc3ccccc3c2=O)c1
- IC50 (Phosphomannomutase 2): 85.2 µM (active)
- IC50 [4]: 52.9 µM (inactive)

Structure (SMILES): Cc1cc2nc3c(O)nc(S)nc3nc2cc1NC(=O)C(F)(F)F
- AC50 (Salmon testes DNA): 86.4 µM (active)
- AC50 (ORF 73): 40.6 µM (active)
- EC50 [5]: > 99 µM (inactive)
- AC50 [6]: 19.6 µM (active)
- AC50 (Keap1/Nrf2): > 52 µM (inactive)
- EC50 [7]: > 99 µM (inactive)

— ChEMBL document CHEMBL1201862, “PubChem BioAssay data set” (2004)
